# Experimental data published in publication PMC12504763, “Antiproliferation, 3D-multicellular spheroid and VEGFR-2 inhibitory properties of spiroindolin-2-ones with phosphonate function” (Scientific Reports, 2025).
# Like-named read-outs stand apart in the source and are kept apart here.
# Assays:
# [1] = test system: CAM blood vessel network; test: Chick chorioallantoic membrane (CAM) anti-angiogenic assay; format: in vivo, chicken; conditions: 20 μL of 660 μM, 3 days; for Diameter of blood vessel (μm ± SEM): CAM test, control 459.7 ± 13.8
# Description: CAM assay is an established xenograft technique for investigating the angiogenic effect due to the high resemblance of the human vascularized epithelium basement membrane with that of the chorioallantoic layer containing mainly type IV collagen[84]–[86].
# Fig. 10 Images of light microscopy for anti-angiogenic evaluation of the tested compounds using CAM assay. […] The glass slide was placed on the surface of the CAM blood vessel network and left in an incubator at 37 °C for 3 days. The CAM blood vessel network was carefully cut and imaged under a light microscope (40 × magnification).
# Fertilized white chicken eggs were incubated in a 37 °C incubator with constant humidity. On day 8, a small squared window was opened allowing the detachment of the growing CAM and shell. The opening was covered with an elastic bandage. […] The CAM was then sealed with a bandage and placed back in the incubator. CAMs were examined daily until day 12 (3 days), the vascularized membranes were then cut around the glass slide and fixed in 5% formalin. Images were taken with an Evos microscope at 40x and 100x magnification^9. Main blood vessel in the microscopic images of controls and samples were quantified by imageJ and analyzed for significant differences (n = 4).
# [2] = test system: TNF-α; test: TNF-α inhibitory properties (ELISA), MCF7 cell lysate; format: cell-based, human; conditions: at 10 μM; for TNF-α pg/mL (± SEM) MCF7: control 83.26 ± 1.1
# [3] = test system: TNF-α; test: TNF-α inhibitory properties (ELISA), HCT116 cell lysate; format: cell-based, human; conditions: at 10 μM; for TNF-α pg/mL (± SEM) HCT116: control 95.74 ± 0.5
# [4] = target: T1, VEGFR-2 (Homo sapiens, UniProt P35968); test: cell-based; format: cell-based; conditions: for inhibition at 10 µM: PaCa-2, PaCa2; for VEGFR-2 pg/mL ± SEM PaCa2: at 10 μM, control 326.80 ± 1.9
# T1 construct: endogenous in cells; host or cells: HCT116, PaCa2, MCF7 (human cancer cell lines, ATCC origin)
# T1 sequence (P35968 20-1356): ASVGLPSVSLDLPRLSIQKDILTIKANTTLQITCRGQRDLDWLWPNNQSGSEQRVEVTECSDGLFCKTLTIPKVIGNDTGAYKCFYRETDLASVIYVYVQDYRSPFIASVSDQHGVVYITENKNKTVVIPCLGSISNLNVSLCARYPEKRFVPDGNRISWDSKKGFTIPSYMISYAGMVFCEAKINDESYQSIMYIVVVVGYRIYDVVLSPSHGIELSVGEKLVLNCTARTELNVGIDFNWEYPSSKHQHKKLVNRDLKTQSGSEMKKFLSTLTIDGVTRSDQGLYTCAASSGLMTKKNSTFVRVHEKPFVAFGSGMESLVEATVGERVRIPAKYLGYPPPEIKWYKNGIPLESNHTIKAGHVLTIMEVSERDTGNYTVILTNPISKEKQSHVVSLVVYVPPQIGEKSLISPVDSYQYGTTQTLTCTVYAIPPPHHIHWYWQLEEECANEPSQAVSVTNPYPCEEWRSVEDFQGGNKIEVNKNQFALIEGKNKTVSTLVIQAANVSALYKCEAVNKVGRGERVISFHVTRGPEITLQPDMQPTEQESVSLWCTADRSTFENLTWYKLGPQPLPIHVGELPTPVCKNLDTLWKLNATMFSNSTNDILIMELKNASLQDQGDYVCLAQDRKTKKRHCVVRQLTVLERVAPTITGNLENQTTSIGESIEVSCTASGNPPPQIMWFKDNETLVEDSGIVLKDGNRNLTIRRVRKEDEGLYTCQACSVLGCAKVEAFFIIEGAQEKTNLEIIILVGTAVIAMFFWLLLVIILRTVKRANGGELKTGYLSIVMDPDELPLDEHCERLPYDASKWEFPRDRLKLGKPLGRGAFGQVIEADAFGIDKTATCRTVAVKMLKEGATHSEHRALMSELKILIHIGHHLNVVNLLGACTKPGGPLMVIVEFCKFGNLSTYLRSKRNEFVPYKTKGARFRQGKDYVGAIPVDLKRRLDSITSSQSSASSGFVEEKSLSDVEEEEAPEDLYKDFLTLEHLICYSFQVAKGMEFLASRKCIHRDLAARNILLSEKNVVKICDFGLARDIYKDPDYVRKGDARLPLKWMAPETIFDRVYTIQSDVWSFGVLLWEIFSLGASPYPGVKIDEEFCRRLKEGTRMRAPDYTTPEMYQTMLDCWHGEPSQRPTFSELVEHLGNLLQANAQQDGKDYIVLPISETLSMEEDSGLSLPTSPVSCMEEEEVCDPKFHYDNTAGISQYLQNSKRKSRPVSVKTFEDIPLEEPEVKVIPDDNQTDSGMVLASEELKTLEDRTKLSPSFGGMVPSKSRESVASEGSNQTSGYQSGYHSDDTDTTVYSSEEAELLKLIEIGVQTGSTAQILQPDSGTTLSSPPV
# [5] = test system: A549 (lung) cancer cell line; test: 2D-monolayer antiproliferation (MTT) against A549; format: cell-based, human; conditions: for IC50: Homo sapiens, MTT, 72 h incubation, A549 lung, read-out: IC50, μM ± SEM A549; for SI (selectivity index) A549: IC50 of RPE1 normal cell/IC50 of A549
# [6] = target: T1, VEGFR-2; test: cell-based; format: cell-based; conditions: for inhibition at 10 µM: MCF7; for VEGFR-2 pg/mL ± SEM MCF7: at 10 μM, control 258.70 ± 2.3
# [7] = test system: RPE1 (normal human immortalized retinal pigment epithelial cell line); test: cells; format: cell-based; conditions: for IC50: Homo sapiens, RPE-1, MTT, normal RPE1 cell, read-out: IC50, μM ± SEM RPE1
# [8] = target: T2, COX-2 (Homo sapiens, UniProt P35354); test: biochemical; conditions: for inhibition at 10 µM: 3 replicates, read-out: % Inhibition of COX-2 ± SEM; for SI (selectivity index, COX-2/COX-1): at 10 μM
# T2 construct: purchased BioVision incorporated USA K548–100
# T2 sequence (P35354 18-604): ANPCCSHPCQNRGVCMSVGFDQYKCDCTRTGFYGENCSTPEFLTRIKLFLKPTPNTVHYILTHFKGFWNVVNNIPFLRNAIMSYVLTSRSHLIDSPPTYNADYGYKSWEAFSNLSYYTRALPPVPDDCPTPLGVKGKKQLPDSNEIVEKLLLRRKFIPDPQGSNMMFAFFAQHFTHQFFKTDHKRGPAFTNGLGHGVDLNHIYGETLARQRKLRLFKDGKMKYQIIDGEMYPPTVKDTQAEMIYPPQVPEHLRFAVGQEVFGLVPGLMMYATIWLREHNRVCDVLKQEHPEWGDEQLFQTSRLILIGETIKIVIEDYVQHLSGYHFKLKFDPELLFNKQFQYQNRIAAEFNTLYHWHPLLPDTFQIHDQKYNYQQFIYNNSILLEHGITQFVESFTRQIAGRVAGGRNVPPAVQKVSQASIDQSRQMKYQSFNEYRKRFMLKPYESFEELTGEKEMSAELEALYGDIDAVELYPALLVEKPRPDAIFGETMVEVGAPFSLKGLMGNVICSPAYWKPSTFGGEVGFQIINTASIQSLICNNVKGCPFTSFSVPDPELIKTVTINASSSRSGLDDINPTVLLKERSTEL
# [9] = test system: HCT116 (colon) cancer cell line; test: 2D-monolayer antiproliferation (MTT) against HCT116; format: cell-based, human; conditions: for IC50: Homo sapiens, HCT-116; for SI (selectivity index) HCT116: IC50 of RPE1 normal cell/IC50 of HCT116
# [10] = test system: PaCa2 (pancreatic) cancer cell line; test: 2D-monolayer antiproliferation (MTT) against PaCa2; format: cell-based, human; conditions: for 1/(observed property): 1/observed IC50 (μM), PaCa2; for IC50: Homo sapiens, PaCa-2, MTT, 72 h incubation, PaCa2 pancreatic, read-out: IC50, μM ± SEM PaCa2; for SI (selectivity index) PaCa2: IC50 of RPE1 normal cell/IC50 of PaCa2
# [11] = test system: TNF-α; test: TNF-α inhibitory properties (ELISA), PaCa2 cell lysate; format: cell-based, human; conditions: for TNF-α % inhibition PaCa2 / TNF-α pg/mL (± SEM) PaCa2: at 10 μM; for TNF-α pg/mL (± SEM) PaCa2: control 111.8 ± 2.0
# [12] = test system: MCF7 (breast) cancer cell line; test: 2D-monolayer antiproliferation (MTT) against MCF7; format: cell-based, human; conditions: for IC50: Homo sapiens, MTT, 72 h incubation, MCF7 breast, read-out: IC50, μM ± SEM MCF7; for SI (selectivity index) MCF7: IC50 of RPE1 normal cell/IC50 of MCF7
# [13] = target: T3, COX-1 (Ovis aries, UniProt P05979); test: biochemical; conditions: 3 replicates, read-out: % Inhibition of COX-1 ± SEM
# T3 construct: purchased BioVision incorporated USA K548–100
# T3 sequence (P05979 25-600): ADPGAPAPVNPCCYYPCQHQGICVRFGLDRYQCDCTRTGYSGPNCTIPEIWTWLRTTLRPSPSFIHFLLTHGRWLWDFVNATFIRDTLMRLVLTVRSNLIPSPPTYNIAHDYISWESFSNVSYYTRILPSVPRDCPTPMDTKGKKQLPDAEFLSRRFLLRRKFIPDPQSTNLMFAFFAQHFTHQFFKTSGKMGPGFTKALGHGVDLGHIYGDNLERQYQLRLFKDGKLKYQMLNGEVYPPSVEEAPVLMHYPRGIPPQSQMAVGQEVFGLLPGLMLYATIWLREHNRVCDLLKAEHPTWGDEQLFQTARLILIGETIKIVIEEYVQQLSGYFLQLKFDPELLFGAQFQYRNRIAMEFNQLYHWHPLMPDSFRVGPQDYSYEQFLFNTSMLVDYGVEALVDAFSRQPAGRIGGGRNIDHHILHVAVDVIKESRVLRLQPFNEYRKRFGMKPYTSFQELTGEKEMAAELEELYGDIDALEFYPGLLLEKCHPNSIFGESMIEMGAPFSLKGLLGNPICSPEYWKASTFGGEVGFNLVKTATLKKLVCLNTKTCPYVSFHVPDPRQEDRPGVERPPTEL
# [14] = target: T1, VEGFR-2; test: cell-based; format: cell-based; conditions: for inhibition at 10 µM: HCT-116, HCT116; for VEGFR-2 pg/mL ± SEM HCT116: at 10 μM, control 317.80 ± 3.5
# [15] = MTT, 72 h incubation, HCT116 colon, read-out: IC50, μM ± SEM HCT116
# [16] = log of observed IC50 (μM), HCT116, read-out: Log(observed property) (converted)
SMILES,TNF-α % inhibition MCF7 [2],TNF-α pg/mL (± SEM) MCF7 [2],TNF-α pg/mL (± SEM) HCT116 [3],inhibition at 10 µM [4],VEGFR-2 pg/mL ± SEM PaCa2 [4],IC50 [5],inhibition at 10 µM [6],VEGFR-2 pg/mL ± SEM MCF7 [6],IC50 [7],inhibition at 10 µM [8],"IC50 [9, 15]","IC50 [9, 16]",SI (selectivity index) HCT116 [9],1/(observed property) [10],IC50 [10],SI (selectivity index) PaCa2 [10],TNF-α pg/mL (± SEM) PaCa2 [11],IC50 [12],SI (selectivity index) MCF7 [12],inhibition at 10 µM [13],further results
"CCOP(=O)(OCC)N1C/C(=C\c2ccc(Cl)cc2)C(=O)C2(C1)C(c1ccc(Cl)cc1)CN(C)C21C(=O)Nc2ccc(F)cc21 (centres unmarked) [Compound 17i, Diethyl (E)-(5′′-(4-chlorobenzylidene)-4′-(4-chlorophenyl)-5-fluoro-1′-methyl-2,4′′-dioxodispiro[indoline-3,2′-pyrrolidine-3′,3′′-piperidin]-1′′-yl)phosphonate]",62.4%,31.27 ± 1.3 pg/mL,28.56 ± 0.9 pg/mL,86.9%,42.76 ± 0.7 pg/mL,> 50 µM,80.9%,49.50 ± 0.3 pg/mL,> 50 µM,49.7 ± 1.9%,4.14 ± 0.042 µM,4.14 µM,> 12.1,0.07435,13.5 ± 0.898 µM,> 3.7,22.8 ± 1.6 pg/mL,4.81 ± 0.148 µM,> 10.4,46.2 ± 2.4%,"% Inhibition of the blood vessels in CAM test [1]: 52.3%; Diameter of blood vessel (μm ± SEM) [1]: 219.3 ± 5.6 μm; selectivity index (SI) ([7]; IC50 against RPE1 compared to the tested cancer cell line(s), in words): high selectivity index; SI (selectivity index, COX-2/COX-1) [8]: 1.09; TNF-α inhibition fold of the standard ibuprofen ([11]; 10 μM): 1.9 fold; TNF-α inhibition fold of the standard indomethacin ([11]; 10 μM): 2.4 fold; TNF-α % inhibition PaCa2 [11]: 79.6%; inhibition at 10 µM [14]: 74.4%; VEGFR-2 pg/mL ± SEM HCT116 [14]: 81.40 ± 1.9 pg/mL"
"CCOP(=O)(OCC)N1C/C(=C\c2ccccc2)C(=O)C2(C1)C(c1ccccc1)CN(C)C21C(=O)Nc2ccccc21 (centres unmarked) [Compound 17a, Diethyl (E)-(5′′-benzylidene-1′-methyl-2,4′′-dioxo-4′-phenyldispiro[indoline-3,2′-pyrrolidine-3′,3′′-piperidin]-1′′-yl)phosphonate]",78.1%,18.25 ± 1.1 pg/mL,24.86 ± 0.8 pg/mL,94.1%,19.26 ± 1.0 pg/mL,14.5 ± 0.259 µM,80.1%,51.50 ± 0.8 pg/mL,16.8 ± 0.516 µM,64.9 ± 2.8%,7.97 ± 0.338 µM,7.97 µM,2.1,0.0774,12.9 ± 0.559 µM,1.3,24.8 ± 1.5 pg/mL,5.86 ± 0.259 µM,2.9,49.8 ± 1.8%,Diameter of blood vessel (μm ± SEM) [1]: 80.7 ± 3.7 μm; TNF-α % inhibition HCT116 [3]: 74.0%; SI (selectivity index) A549 [5]: 1.2; inhibition at 10 µM [14]: 88%; VEGFR-2 pg/mL ± SEM HCT116 [14]: 38.20 ± 1.6 pg/mL
"CCOP(=O)(OCC)N1C/C(=C\c2ccc(C)cc2)C(=O)C2(C1)C(c1ccc(C)cc1)CN(C)C21C(=O)Nc2ccccc21 (centres unmarked) [Compound 17m, Diethyl (E)-[1′-methyl-5′′-(4-methylbenzylidene)-2,4′′-dioxo-4′-(p-tolyl)dispiro[indoline-3,2′-pyrrolidine-3′,3′′-piperidin]-1′′-yl]phosphonate]",68.5%,26.24 ± 2.2 pg/mL,21.65 ± 0.9 pg/mL,92.2%,25.36 ± 1.0 pg/mL,8.18 ± 0.435 µM,83.5%,42.80 ± 0.4 pg/mL,9.57 ± 0.537 µM,60.9 ± 1.1%,3.44 ± 0.083 µM,3.44 µM,2.8,0.1784,5.61 ± 0.063 µM,1.7,32.83 ± 1.3 pg/mL,4.21 ± 0.085 µM,2.3,58.3 ± 3%,"Diameter of blood vessel (μm ± SEM) [1]: 85.7 ± 2.6 μm; TNF-α % inhibition HCT116 [3]: 77.4%; SI (selectivity index) A549 [5]: 1.2; SI (selectivity index, COX-2/COX-1) [8]: 0.93; TNF-α % inhibition PaCa2 [11]: 70.6%; inhibition at 10 µM [14]: 86%; VEGFR-2 pg/mL ± SEM HCT116 [14]: 44.50 ± 0.5 pg/mL"
"CCOP(=O)(OCC)N1C/C(=C\c2ccccc2)C(=O)C2(C1)C(c1ccccc1)CN(C)C21C(=O)Nc2ccc(Cl)cc21 (centres unmarked) [Compound 17c, Diethyl (E)-(5′′-benzylidene-5-chloro-1′-methyl-2,4′′-dioxo-4′-phenyldispiro[indoline-3,2′-pyrrolidine-3′,3′′-piperidin]-1′′-yl)phosphonate]",72.2%,23.16 ± 0.7 pg/mL,31.72 ± 1.2 pg/mL,91.3%,28.43 ± 1.0 pg/mL,12.5 ± 0.205 µM,76.7%,60.40 ± 0.5 pg/mL,13.8 ± 0.423 µM,53.9 ± 1.7%,6.32 ± 0.132 µM,6.32 µM,2.2,0.1093,9.15 ± 0.154 µM,1.5,33.8 ± 2.2 pg/mL,5.27 ± 0.172 µM,2.6,58.6 ± 3.5%,"TNF-α % inhibition HCT116 [3]: 66.9%; SI (selectivity index) A549 [5]: 1.1; SI (selectivity index, COX-2/COX-1) [8]: 1.05; TNF-α % inhibition PaCa2 [11]: 69.8%; inhibition at 10 µM [14]: 86%; VEGFR-2 pg/mL ± SEM HCT116 [14]: 44.50 ± 1.1 pg/mL"
